“Also recorded” adds a separate entry of the source.
Tests used:
AAC-19 and Y260A cells [1] = assay: Cellular ATP content (CellTiter-Glo) under glycolysis inhibition; format: cell-based, porcine; details: Y260A cells compared to AAC-19 cells; 2-DG 45 minutes in serum-free DMEM
Procedure: (§1) Biochemical measurement of ATP and lactate. ATP measurements were performed using CellTiter-Glo Luminescent Cell Viability Assay kit. 10,000 cells per well were cultured in 96-well culture plate. After treatment with 2-DG at indicated concentrations in serum-free DMEM for 45 minutes, assay reagents were reconstituted and added into culture plate. Luminescent counts of the reactants were determined from an opaque-walled 96-well plate with a microplate reader. Lactate measurement was done by colorimetric methods as described by previously. In PP2 study, culture medium containing serum and 5 μM PP2 was replaced in culture dish and collected after 4 hours for measurements.

AAC-19 and Y260A cells [2] = assay: Extracellular acidification rate (ECAR), Seahorse, in AAC-19 and Y260A cells; format: cell-based, porcine; details: for ECAR after oligomycin (maximal capacity of glycolysis): after addition of glucose
Procedure: Bioenergetics. Properties of cellular bioenergetics were characterized using Seahorse XFp Extracellular Flux Analyzer by measuring oxygen consumption rate (OCR) and extracellular acidification rate (ECAR) following the guidelines provided by the manufacturer. Prior to the start of Seahorse assay, optimal FCCP concentration for each cell line was determined by titration studies. Unless indicated otherwise, 10,000 cells per well were seeded with culture medium. Bicarbonate-free medium (Agilent Technologies) with different substrates (10 mM glucose, 2 mM glutamine and 1 mM pyruvate for Cell Mito Stress Test assays; 2 mM glutamine for Glycolysis Stress Test assays) was replaced one hour prior to the assay. Baseline OCR and ECAR rates were measured three times before various inhibitors, stimulants, substrates, or compounds were added through the drug delivery ports. In the PP2 study, cells were pretreated with 5 μM PP2 for 4 h and then analyzed.

Y260A cells [3] = assay: Lactate production in culture medium of Y260A cells; format: cell-based, porcine; details: 5 μM PP2 for 4 h
Procedure: as §1

ERK1/2 = assay: ERK activation (pERK1/2/ERK1/2) by Western blot in AAC-19 and Y260A cells; format: cell-based, porcine; details: for ERK phosphorylation (pERK1/2/ERK1/2): different concentrations of ouabain for 10 minutes
Procedure: (§2) Cell culture and cell line generation. All cell lines were purchased from and maintained according to ATCC (Manassas, Va.). LLC-PK1 was serum starved before being used for signaling experiments. AAC-19, Y260A and DU145, A4-7 cell lines were cultured in the presence of 0.5% and 1% serum respectively for 24 hours before being used for the signaling experiments. LLC-PK1 cells were transfected (Lipofectamine 2000) with pEYFP-C1 vector containing α1 CD2, α2 CD2 or pEYFP-C1 empty vector. After verifying YFP expression visually, the cells were selected with 1 mg/ml G418 for one week. G418 resistant clones were selected and expanded. Cells were then cultured without G418 for at least three generations before being used for experiments. CD2N and CD2C cells were generated in similar manner. Y260A cells were generated by transfecting PY-17 cells with pRC/CMV-α1 AACm1 vector harboring mutation at Y260 and selected with ouabain (3 μM). Ouabain-resistant clones were isolated and expanded into stable cell lines. The cells were cultured for at least 3 generations without ouabain before being used for any experiment. DU-P1, A4-7 and A4-3 cell lines were generated by transfecting DU145 cells with a α1 Na/K-ATPase-specific siRNA containing vector and selecting with Puromycin as described above. All constructs were verified by DNA sequencing.
(§3) Immunoblot, Immunoprecipitation and Immunostaining Analysis. Immunoblot assays were performed as described previously. Intensity of bands were quantified with ImageJ software (NIH). Immunoprecipitation was performed by adding 5 μg of anti-Src (Millipore Cat #05-184) antibody to 500 μg of cell lysate (1 μg/μl concentration) or 8 μg of anti-α1 Na/K-ATPase antibody (Millipore Cat #06-520) to 800 μg of cell lysate ([…] concentration). Precipitated proteins were then analyzed as described previously. For immunostaining antibodies used—anti-α1 Na/K-ATPase antibody (Millipore Cat #05-369) and Alexa Fluor 488-conjugated anti-mouse secondary antibody.

[4] = system: α1 Na/K-ATPase Y10 phosphorylation; assay: Y10 phosphorylation of α1 Na/K-ATPase in LLC-PK1 cells (immunoblot); format: cell-based, porcine
Procedure: as §2, with “DU-P1, A4-7 and A4-3 cell lines were generated by transfecting DU145 cells with a α1 Na/K-ATPase-specific siRNA containing vector and selecting with Puromycin as described above. All constructs were verified by DNA sequencing.” left out
(§4) Immunoblot, Immunoprecipitation and Immunostaining Analysis. […] Intensity of bands were quantified with ImageJ software (NIH). […] Precipitated proteins were then analyzed as described previously. […]

Y260A cells [5] = assay: qPCR of upregulated metabolic genes in Y260A cells; format: cell-based, porcine; details: 5 μM PP2 overnight
Description: RNA Extraction, cDNA Synthesis and Quantitative PCR. Total RNA was isolated with the QIAGEN RNeasy Mini Kit. The same amount of total RNA was used for synthesizing first-stand cDNA with the SuperScript III First-Stand Synthesis SuperMix for qRT-PCR (ThermoFisher). The cDNA from each sample was used as a template for the quantitative PCR (Syber green) with Roche LightCycler® 480 Real-Time PCR System. All primers were synthesized by Integrated DNA Technologies (IDT). β-actin was used as internal control.

A4-7 cells [6] = assay: Cell proliferation of A4-7 cells; format: cell-based, human; details: PP2, 48 hours
Procedure: Cell growth assay and MTT assay. Cell growth assay and MTT assay were performed as previously described.

A4-7 cells [7] = assay: Lactate production in medium of A4-7 cells; format: cell-based, human; details: 5 μM PP2 for 4 h
Procedure: as §1

[8] = system: α1 Na/K-ATPase Y260 phosphorylation; assay: Y260 phosphorylation of α1 Na/K-ATPase in LLC-PK1 cells (immunoblot); format: cell-based, porcine
Procedure: as §2, §3

Src [9] = assay: Src activation (pY418Src/c-Src) by Western blot in LLC-PK1, AAC-19 and Y260A cells; format: cell-based, porcine; details: for Src phosphorylation (pY418Src/c-Src): different concentrations of ouabain for 10 minutes
Procedure: as §2, §3

Akt = Akt activation (pS473Akt/Akt) by Western blot in AAC-19 and Y260A cells; format: cell-based, porcine; details: different concentrations of ouabain for 10 minutes
Procedure: as §2, with “DU-P1, A4-7 and A4-3 cell lines were generated by transfecting DU145 cells with a α1 Na/K-ATPase-specific siRNA containing vector and selecting with Puromycin as described above. All constructs were verified by DNA sequencing.” left out
as §4

Src [10] = assay: Src activation (pY418 Src/c-Src) by Western blot in DU-P1 and A4-7 cells; format: cell-based, human; details: different concentrations of EGF for 5 minutes
Procedure: as §2, with “DU-P1, A4-7 and A4-3 cell lines were generated by transfecting DU145 cells with a α1 Na/K-ATPase-specific siRNA containing vector and selecting with Puromycin as described above. All constructs were verified by DNA sequencing.” left out
as §4

EGFR [11] = assay: EGFR phosphorylation at Y845 in AAC-19 and Y260A cells; format: cell-based, porcine; details: AAC-19 cells; different concentrations of EGF
Procedure: as §2, with “DU-P1, A4-7 and A4-3 cell lines were generated by transfecting DU145 cells with a α1 Na/K-ATPase-specific siRNA containing vector and selecting with Puromycin as described above. All constructs were verified by DNA sequencing.” left out
as §4

EGFR [12] = assay: EGFR activation (pY845 EGFR/EGFR) by Western blot in DU-P1 and A4-7 cells; format: cell-based, human; details: different concentrations of EGF for 5 minutes
Procedure: as §2, with “DU-P1, A4-7 and A4-3 cell lines were generated by transfecting DU145 cells with a α1 Na/K-ATPase-specific siRNA containing vector and selecting with Puromycin as described above. All constructs were verified by DNA sequencing.” left out
as §4

O=CC[C@@H](O)[C@H](O)[C@H](O)CO [2-DG, 2-deoxyglucose]
cellular ATP content in response to inhibition of glycolysis (AAC-19 and Y260A cells [1]): much more sensitive
ECAR after 2-DG (AAC-19 and Y260A cells [2]; AAC-19 and Y260A cells, after glucose and oligomycin): completely reversed the increase

CC(C)(C)n1nc(-c2ccc(Cl)cc2)c2c(N)ncnc21 [PP2]
lactate production (Y260A cells [3]): sufficient to reduce; also recorded: blocked the increase
basal ERK activities (increased in Y260A cells) (ERK1/2; Y260A cells, PP2): sensitive to PP2; also recorded: sensitive to Src inhibitor
Y10 phosphorylation ([4]; PP2 5 μM, 30 minutes): Neither inhibitor nor knockout of Src kinase affected
mRNA level of upregulated glycolytic/metabolic genes (Y260A cells [5]): restored the mRNA level of most of these upregulated genes; also recorded: reduced the expression
cell proliferation rate (A4-7 cells [6]): reversed; also recorded: inhibition
glycolysis rate (ECAR) (AAC-19 and Y260A cells [2]; Y260A cells, 5 μM PP2 for 4 h): sufficient to reduce
lactate production (increased in A4-7 cells) (A4-7 cells [7]): sensitive to Src inhibition
Y260 phosphorylation ([8]; PP2 5 μM, 30 minutes pretreatment): attenuated

CC[C@H]1/C=C/C=C/C[C@@H](C)[C@H](O)[C@@](C)(O)C(=O)[C@@H](C)[C@H](O)[C@@H](C)C(=O)[C@@H](C)[C@H](O)[C@@H](C)/C=C/C(=O)O[C@@H]2[C@H](C)[C@H](CC1)O[C@]1(CC[C@H](C)[C@H](C[C@@H](C)O)O1)[C@H]2C [oligomycin]
ECAR after oligomycin (maximal capacity of glycolysis) (AAC-19 and Y260A cells [2]; AAC-19 cells): further increase
ECAR after oligomycin (maximal capacity of glycolysis) (AAC-19 and Y260A cells [2]; Y260A cells): not in Y260A cells

C[C@@H]1O[C@@H](O[C@H]2C[C@@H](O)[C@]3(CO)[C@H]4[C@H](O)C[C@]5(C)[C@@H](C6=CC(=O)OC6)CC[C@]5(O)[C@@H]4CC[C@]3(O)C2)[C@H](O)[C@H](O)[C@H]1O [ouabain]
Src phosphorylation (pY418Src/c-Src) (Src [9]; AAC-19 cells): stimulated
Src phosphorylation (pY418Src/c-Src) (Src [9]; Y260A mutant cells): abolished
ERK phosphorylation (pERK1/2/ERK1/2) (ERK1/2; AAC-19 cells): stimulated
ERK phosphorylation (pERK1/2/ERK1/2) (ERK1/2; Y260A mutant cells): abolished
ouabain-induced ERK activation (pERK1/2/ERK 1/2) (ERK1/2; Y260A mutant clone 24 cells): failed to respond
Y10 phosphorylation ([4]; ouabain): no effect
Akt phosphorylation (pS473Akt/Akt) (Akt; AAC-19 cells): stimulated
Akt phosphorylation (pS473Akt/Akt) (Akt; Y260A mutant cells): abolished
Y260 phosphorylation ([8]; ouabain, function of time and concentration): increased

EGF: recombinant EGF, stimulates EGFR/Src signaling
Src activation (pY418 Src/c-Src) (Src [10]; A4-7 cells): not in A4-7 cells
Src activation (pY418 Src/c-Src) (Src [10]; DU-P1 cells): able to stimulate
phosphorylation of EGFR at Y845 (EGFR [11]): stimulated
Src kinase activity (Src [9]; AAC-19 cells, different concentrations of EGF): stimulated
Src phosphorylation at Y418 (Src [9]; LLC-PK1 cells, recombinant EGF, time and dose): time- and dose-dependent stimulation
Y845 phosphorylation of EGFR (EGFR [12]; A4-7 cells): not in A4-7 cells
Y845 phosphorylation of EGFR (EGFR [12]; DU-P1 cells): able to stimulate
Y260 phosphorylation of Na/K-ATPase ([8]; recombinant EGF, time and dose): time- and dose-dependent stimulation
